From US9783505B2, “Substituted diaminopyrimidyl compounds, compositions thereof, and methods of treatment therewith” (Signal Pharmaceuticals, LLC, priority 2013, dated 2017)

Key:
[1] = biological target: T1, His-PKC-theta (Homo sapiens, UniProt Q04759); assay: PKC-theta Assay (384-well time resolved fluorescence, IMAP TR-FRET); format: biochemical; settings: read-out: Act. Level (IC50 in the PKC-theta Assay)
T1 construct: His; purchased Invitrogen
In short: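 Fam-labeled S6-derived peptide (200 nM) and 10 μM ATP were reacted with 142 pM enzyme for 2 h at room temperature in HEPES pH 7.6 buffer with MgCl2, DTT, Triton X-100, BSA and EDTA. The reaction was stopped with IMAP progressive binding reagent plus Tb donor, incubated overnight, then TR-FRET read.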

[2] = biological target: T2, PKC delta (Homo sapiens, UniProt Q05655); assay: PKC delta Assay (384-well time resolved fluorescence, IMAP TR-FRET); format: biochemical; settings: selectivity for PKC-theta over PKC-delta
T2 construct: purchased Invitrogen
T2 sequence (Q05655 whole entry): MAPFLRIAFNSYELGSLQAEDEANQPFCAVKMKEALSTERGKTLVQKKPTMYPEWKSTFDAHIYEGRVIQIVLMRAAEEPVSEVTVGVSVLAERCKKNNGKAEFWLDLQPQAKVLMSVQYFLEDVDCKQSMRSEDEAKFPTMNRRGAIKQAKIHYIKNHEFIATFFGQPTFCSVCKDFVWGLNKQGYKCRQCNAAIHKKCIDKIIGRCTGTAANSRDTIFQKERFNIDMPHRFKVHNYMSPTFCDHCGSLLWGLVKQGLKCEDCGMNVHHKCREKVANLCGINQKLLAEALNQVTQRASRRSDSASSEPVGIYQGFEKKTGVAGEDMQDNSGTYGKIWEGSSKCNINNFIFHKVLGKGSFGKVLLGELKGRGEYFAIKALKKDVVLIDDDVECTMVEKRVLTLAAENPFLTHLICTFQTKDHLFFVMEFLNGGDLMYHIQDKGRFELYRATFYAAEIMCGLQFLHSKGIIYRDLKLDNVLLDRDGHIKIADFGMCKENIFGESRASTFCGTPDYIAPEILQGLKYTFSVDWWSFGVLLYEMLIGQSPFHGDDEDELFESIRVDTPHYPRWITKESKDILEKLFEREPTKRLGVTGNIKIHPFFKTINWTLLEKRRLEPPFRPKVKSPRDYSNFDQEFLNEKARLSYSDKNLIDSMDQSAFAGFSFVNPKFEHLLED
In short: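 1.5 nM enzyme with 200 nM Fam-labeled S6-derived peptide and 10 μM ATP in 50 mM HEPES pH 7.6, 10 mM MgCl2, 1 mM DTT, 0.01% Triton X-100, 0.01% BSA, 0.1 mM EDTA; 2 hours at room temperature. Stopped with IMAP binding reagent and Tb donor, incubated overnight, read by TR-FRET.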

T1 sequence (Q04759 whole entry): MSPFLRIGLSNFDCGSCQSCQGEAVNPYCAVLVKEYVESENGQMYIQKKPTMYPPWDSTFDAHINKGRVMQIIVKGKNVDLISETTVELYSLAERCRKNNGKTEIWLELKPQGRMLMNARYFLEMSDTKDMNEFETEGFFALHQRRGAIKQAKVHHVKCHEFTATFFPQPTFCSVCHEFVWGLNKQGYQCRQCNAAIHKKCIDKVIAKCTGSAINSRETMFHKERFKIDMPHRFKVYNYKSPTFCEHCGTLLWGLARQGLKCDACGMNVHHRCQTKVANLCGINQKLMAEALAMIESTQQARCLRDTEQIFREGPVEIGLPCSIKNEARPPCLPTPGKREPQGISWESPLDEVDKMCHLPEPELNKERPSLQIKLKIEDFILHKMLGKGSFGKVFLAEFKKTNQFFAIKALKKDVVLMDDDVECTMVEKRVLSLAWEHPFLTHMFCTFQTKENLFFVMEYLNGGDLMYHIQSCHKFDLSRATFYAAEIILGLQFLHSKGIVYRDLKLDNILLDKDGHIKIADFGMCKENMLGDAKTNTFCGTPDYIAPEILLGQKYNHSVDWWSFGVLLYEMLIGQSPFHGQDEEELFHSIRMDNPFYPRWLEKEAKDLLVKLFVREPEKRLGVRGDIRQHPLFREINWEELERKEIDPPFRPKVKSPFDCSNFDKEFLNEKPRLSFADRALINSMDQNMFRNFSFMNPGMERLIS

SMILES	IC50 [1] [µM]	Sel. Level (ratio of IC50 PKC-delta/IC50 PKC-theta) [2]
Cc1cnn(CCNc2ncc(C#N)c(N[C@@H]3CC[C@H](O)C(C)(C)C3)n2)c1 [Cmpd 212]	2 to 10	H (selectivity level of 5-fold or less (selectivity level H))
COc1cccc(CCNc2ncc(C#N)c(N[C@@H]3CC(O)C3(C)C)n2)n1 (stereo partly drawn) [Cmpd 227]	0.8 to 2	G (selectivity between 5- and 20-fold (selectivity level G))
CC1(C)C[C@H](Nc2nc(NCCn3cc(C#N)cn3)ncc2C#N)CC[C@@H]1O [Cmpd 213]	2 to 10	H (selectivity level of 5-fold or less (selectivity level H))
CC1(C)[C@@H](O)C[C@H]1Nc1nc(NCCn2cccc2)ncc1C#N [Cmpd 238]	0.1 to 0.8	G (selectivity between 5- and 20-fold (selectivity level G))
CC1(C)[C@H](O)CCC[C@@H]1Nc1nc(NCCC2C(=O)Nc3cc(F)ccc32)ncc1C#N (stereo partly drawn) [Cmpd 311]	0.1 to 0.8	G (selectivity between 5- and 20-fold (selectivity level G))
Cc1cc2ccccc2n1CCNc1ncc(C#N)c(N[C@@H]2CC[C@H](O)C(C)(C)C2)n1 [Cmpd 206]	0.1 to 0.8	F (selectivity of between 20- and 100-fold (selectivity level F))
COc1cccc(CCNc2ncc(C#N)c(N[C@H]3CC[C@@H](O)CC3)n2)n1 [Cmpd 327]	2 to 10	H (selectivity level of 5-fold or less (selectivity level H))
CC1(C)C[C@H](Nc2nc(NCCc3cccc4cc[nH]c34)ncc2C#N)CCC1O (stereo partly drawn) [Cmpd 217]	0.1 to 0.8	G (selectivity between 5- and 20-fold (selectivity level G))
CC1(C)C[C@H](Nc2nc(NCCc3cncc(Cl)c3)ncc2C#N)CC[C@@H]1O [Cmpd 276]	0.1 to 0.8	F (selectivity of between 20- and 100-fold (selectivity level F))
COc1cncc(CCNc2ncc(C#N)c(N[C@@H]3CC[C@H](O)C(C)(C)C3)n2)c1 [Cmpd 329]	0.1 to 0.8	G (selectivity between 5- and 20-fold (selectivity level G))
CC1(C)[C@H](O)CCC[C@@H]1Nc1nc(NCCC2C(=O)Nc3ccccc32)ncc1C#N (stereo partly drawn) [Cmpd 307]	0.1 to 0.8	G (selectivity between 5- and 20-fold (selectivity level G))
CNC(=O)[C@H]1C[C@@H](Nc2nc(NCCc3c[nH]c4ccccc34)ncc2C#N)C1 [Cmpd 289]	0.8 to 2	G (selectivity between 5- and 20-fold (selectivity level G))
Cc1cc2ccccc2n1CCNc1ncc(C#N)c(N[C@@H]2C[C@H](O)C2(C)C)n1 [Cmpd 243]	0.8 to 2	G (selectivity between 5- and 20-fold (selectivity level G))
COCc1noc(CCNc2ncc(C#N)c(N[C@@H]3CC(O)C3(C)C)n2)n1 (stereo partly drawn) [Cmpd 236]	2 to 10	H (selectivity level of 5-fold or less (selectivity level H))
CCc1ccc2c(c1)C(CCNc1ncc(C#N)c(N[C@@H]3CC[C@H](O)C(C)(C)C3)n1)C(=O)N2 (stereo partly drawn) [Cmpd 249]	< 0.1	E (selectivity (Sel. Level=ratio of IC50 PKC-delta/IC50 PKC-theta) of >100-fold (selectivity level E))
CC1(C)C[C@H](Nc2nc(NCCc3ccc(OCC(F)(F)F)nc3)ncc2C#N)CC[C@@H]1O [Cmpd 253]	0.1 to 0.8	F (selectivity of between 20- and 100-fold (selectivity level F))
CC1(C)C[C@H](Nc2nc(NCCc3ccon3)ncc2C#N)CC[C@@H]1O [Cmpd 220]	0.8 to 2	G (selectivity between 5- and 20-fold (selectivity level G))
Cc1nc2ccccc2n1CCNc1ncc(C#N)c(N[C@@H]2CC[C@H](O)C(C)(C)C2)n1 [Cmpd 207]	2 to 10	H (selectivity level of 5-fold or less (selectivity level H))
CC1(C)[C@@H](O)C[C@H]1Nc1nc(NCCc2nc3ccccc3o2)ncc1C#N [Cmpd 242]	2 to 10	H (selectivity level of 5-fold or less (selectivity level H))
CC1(C)[C@@H](O)C[C@H]1Nc1nc(NCCc2ccco2)ncc1C#N [Cmpd 234]	0.8 to 2	G (selectivity between 5- and 20-fold (selectivity level G))

SMILES	IC50 [1] [µM]	Sel. Level (ratio of IC50 PKC-delta/IC50 PKC-theta) [2]
CC1(C)C[C@H](Nc2nc(NCCc3cc(C(F)(F)F)ccn3)ncc2C#N)CC[C@@H]1O [Cmpd 326]	0.1 to 0.8	G (selectivity between 5- and 20-fold (selectivity level G))
CC1(C)[C@@H](C(N)=O)C[C@H]1Nc1nc(NCCC2C(=O)Nc3ccccc32)ncc1C#N (stereo partly drawn) [Cmpd 318]	< 0.1	E (selectivity (Sel. Level=ratio of IC50 PKC-delta/IC50 PKC-theta) of >100-fold (selectivity level E))
CC1(C)C[C@H](Nc2nc(NCCc3cc(Cl)c[n+]([O-])c3)ncc2C#N)CC[C@@H]1O [Cmpd 275]	0.8 to 2	G (selectivity between 5- and 20-fold (selectivity level G))
N#Cc1cnc(NCCc2c[nH]c3cnccc23)nc1N[C@H]1CC[C@@H](C(N)=O)CC1 [Cmpd 320]	0.1 to 0.8	F (selectivity of between 20- and 100-fold (selectivity level F))
Cc1nccnc1CCNc1ncc(C#N)c(N[C@H]2CC[C@@H](C(N)=O)CC2)n1 [Cmpd 321]	2 to 10	H (selectivity level of 5-fold or less (selectivity level H))
Cc1cccnc1CCNc1ncc(C#N)c(NC2C[C@H](O)C2(C)C)n1 (stereo partly drawn) [Cmpd 224]	2 to 10	H (selectivity level of 5-fold or less (selectivity level H))
CC1(C)C[C@H](Nc2nc(NCCc3nc4ccccc4o3)ncc2C#N)CC[C@@H]1O [Cmpd 205]	2 to 10	H (selectivity level of 5-fold or less (selectivity level H))
CC1(C)C[C@H](Nc2nc(NCCc3cncnc3)ncc2C#N)CC[C@@H]1O [Cmpd 277]	2 to 10	H (selectivity level of 5-fold or less (selectivity level H))
CC(F)(F)COc1ncncc1CNc1ncc(C#N)c(N[C@H]2CCC[C@](C)(O)C2)n1 [Cmpd 285]	2 to 10	H (selectivity level of 5-fold or less (selectivity level H))
CC1(C)C[C@H](Nc2nc(NCCc3ccnc(C(F)(F)F)c3)ncc2C#N)CC[C@@H]1O [Cmpd 272]	0.1 to 0.8	G (selectivity between 5- and 20-fold (selectivity level G))
CN(C)C(=O)[C@H]1C[C@@H](Nc2nc(NCCc3c[nH]c4ccccc34)ncc2C#N)C1 [Cmpd 288]	0.1 to 0.8	G (selectivity between 5- and 20-fold (selectivity level G))
Cc1nc(CCNc2ncc(C#N)c(N[C@@H]3CC(O)C3(C)C)n2)no1 (stereo partly drawn) [Cmpd 233]	2 to 10	H (selectivity level of 5-fold or less (selectivity level H))
Cc1cnccc1CCNc1ncc(C#N)c(N[C@@H]2C[C@H](O)C2(C)C)n1 [Cmpd 268]	0.8 to 2	G (selectivity between 5- and 20-fold (selectivity level G))
Cc1cccn1CCNc1ncc(C#N)c(N[C@H]2CC[C@@H](C(N)=O)CC2)n1 [Cmpd 324]	0.8 to 2	G (selectivity between 5- and 20-fold (selectivity level G))
CC(F)(F)COc1ncncc1CNc1ncc(C#N)c(N[C@@H]2CCC[C@H](O)C2(C)C)n1 [Cmpd 299]	< 0.1	E (selectivity (Sel. Level=ratio of IC50 PKC-delta/IC50 PKC-theta) of >100-fold (selectivity level E))
C[C@]1(O)CC2(C[C@H](Nc3nc(NCCC4C(=O)Nc5ccccc54)ncc3C#N)C2)C1 (stereo partly drawn) [Cmpd 301]	0.1 to 0.8	F (selectivity of between 20- and 100-fold (selectivity level F))
CC1(C)C[C@H](Nc2nc(NCCc3cncc(C(F)(F)F)c3)ncc2C#N)CC[C@@H]1O [Cmpd 271]	0.8 to 2	G (selectivity between 5- and 20-fold (selectivity level G))
CC1(C)[C@@H](O)CCC[C@H]1Nc1nc(NCCC2C(=O)Nc3ccccc32)ncc1C#N (stereo partly drawn) [Cmpd 308]	0.1 to 0.8	H (selectivity level of 5-fold or less (selectivity level H))
CC1(C)C(O)C[C@H]1Nc1nc(NCCc2cccnc2)ncc1C#N (stereo partly drawn) [Cmpd 231]	0.8 to 2	G (selectivity between 5- and 20-fold (selectivity level G))
